Assay results taken from PubChem BioAssay (NCI).
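Each compound was tested at five concentrations against cells in 96-well plates for 48 hours. At the TGI there is no net growth.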

Legend:
Test in all cases: growth of human tumour cells (NCI), 48 h
NCI/ADR-RES ovarian = test system: NCI/ADR-RES ovarian
HT29 colon = test system: HT29 colon
SF-295 CNS = test system: SF-295 CNS
SF-268 CNS = test system: SF-268 CNS
HOP-92 NSCLC = test system: HOP-92 NSCLC
A549 NSCLC = test system: A549 NSCLC
UACC-62 melanoma = test system: UACC-62 melanoma
MDA-MB-231 breast = test system: MDA-MB-231 breast
RPMI-8226 leukemia = test system: RPMI-8226 leukemia
CCRF-CEM leukemia = test system: CCRF-CEM leukemia
SR leukemia = test system: SR leukemia
HS 578T breast = test system: HS 578T breast
HL-60(TB) leukemia = test system: HL-60(TB) leukemia
NCI-H460 lung = test system: NCI-H460 lung
LOX IMVI melanoma = test system: LOX IMVI melanoma
CAKI-1 renal = test system: CAKI-1 renal
OVCAR-3 ovarian = test system: OVCAR-3 ovarian
T-47D breast = test system: T-47D breast
BT-549 breast = test system: BT-549 breast
SNB-19 CNS = test system: SNB-19 CNS
SF-539 CNS = test system: SF-539 CNS
NCI-H23 lung = test system: NCI-H23 lung
UO-31 renal = test system: UO-31 renal
SK-OV-3 ovarian = test system: SK-OV-3 ovarian
HCT-15 colon = test system: HCT-15 colon
NCI-H522 lung = test system: NCI-H522 lung
OVCAR-5 ovarian = test system: OVCAR-5 ovarian
ACHN renal = test system: ACHN renal
K-562 leukemia = test system: K-562 leukemia
RXF 393 renal = test system: RXF 393 renal
EKVX NSCLC = test system: EKVX NSCLC
SN12C renal = test system: SN12C renal
SW-620 colon = test system: SW-620 colon
NCI-H226 lung = test system: NCI-H226 lung
SK-MEL-28 melanoma = test system: SK-MEL-28 melanoma
PC-3 prostate = test system: PC-3 prostate
MDA-N = test system: MDA-N
A498 renal = test system: A498 renal
IGROV1 ovarian = test system: IGROV1 ovarian
M14 melanoma = test system: M14 melanoma
HOP-62 NSCLC = test system: HOP-62 NSCLC
TK-10 renal = test system: TK-10 renal
DU-145 prostate = test system: DU-145 prostate
SK-MEL-2 melanoma = test system: SK-MEL-2 melanoma
SK-MEL-5 melanoma = test system: SK-MEL-5 melanoma
U251 CNS = test system: U251 CNS
HCC-2998 colon = test system: HCC-2998 colon
OVCAR-4 ovarian = test system: OVCAR-4 ovarian
SNB-75 CNS = test system: SNB-75 CNS
UACC-257 melanoma = test system: UACC-257 melanoma
MOLT-4 leukemia = test system: MOLT-4 leukemia
HCT-116 colon = test system: HCT-116 colon
MALME-3M melanoma = test system: MALME-3M melanoma
MDA-MB-435 = test system: MDA-MB-435
KM12 colon = test system: KM12 colon
OVCAR-8 ovarian = test system: OVCAR-8 ovarian
COLO 205 colon = test system: COLO 205 colon
786-0 renal = test system: 786-0 renal
MCF7 breast = test system: MCF7 breast

NC(Cc1cnc(I)[nH]1)C(=O)O (configuration not stated)
TGI (NCI/ADR-RES ovarian): > 100 µM
TGI (HT29 colon): > 100 µM
TGI (SF-295 CNS): > 100 µM
TGI (SF-268 CNS): > 100 µM
TGI (HOP-92 NSCLC): 82.9 µM
TGI (A549 NSCLC): > 100 µM
TGI (UACC-62 melanoma): > 100 µM
TGI (MDA-MB-231 breast): > 100 µM
TGI (RPMI-8226 leukemia): > 100 µM
TGI (CCRF-CEM leukemia): > 100 µM
TGI (SR leukemia): > 100 µM
TGI (HS 578T breast): 63.8 µM
TGI (HL-60(TB) leukemia): 6.41 µM
TGI (NCI-H460 lung): > 100 µM
TGI (LOX IMVI melanoma): > 100 µM
TGI (CAKI-1 renal): > 100 µM
TGI (OVCAR-3 ovarian): > 100 µM
TGI (T-47D breast): > 100 µM
TGI (BT-549 breast): > 100 µM
TGI (SNB-19 CNS): > 100 µM
TGI (SF-539 CNS): > 100 µM
TGI (NCI-H23 lung): > 100 µM
TGI (UO-31 renal): > 100 µM
TGI (SK-OV-3 ovarian): > 100 µM
TGI (HCT-15 colon): > 100 µM
TGI (NCI-H522 lung): 72.9 µM
TGI (OVCAR-5 ovarian): > 100 µM
TGI (ACHN renal): > 100 µM
TGI (K-562 leukemia): > 100 µM
TGI (RXF 393 renal): > 100 µM
TGI (EKVX NSCLC): > 100 µM
TGI (SN12C renal): > 100 µM
TGI (SW-620 colon): > 100 µM
TGI (NCI-H226 lung): > 100 µM
TGI (SK-MEL-28 melanoma): > 100 µM
TGI (PC-3 prostate): > 100 µM
TGI (MDA-N): > 100 µM
TGI (A498 renal): > 100 µM
TGI (IGROV1 ovarian): > 100 µM
TGI (M14 melanoma): > 100 µM
TGI (HOP-62 NSCLC): > 100 µM
TGI (TK-10 renal): > 100 µM
TGI (DU-145 prostate): > 100 µM
TGI (SK-MEL-2 melanoma): > 100 µM
TGI (SK-MEL-5 melanoma): > 100 µM
TGI (U251 CNS): > 100 µM
TGI (HCC-2998 colon): > 100 µM
TGI (OVCAR-4 ovarian): > 100 µM
TGI (SNB-75 CNS): > 100 µM
TGI (UACC-257 melanoma): > 100 µM
TGI (MOLT-4 leukemia): > 100 µM
TGI (HCT-116 colon): > 100 µM
TGI (MALME-3M melanoma): 75.2 µM
TGI (MDA-MB-435): > 100 µM
TGI (KM12 colon): > 100 µM
TGI (OVCAR-8 ovarian): > 100 µM
TGI (COLO 205 colon): > 100 µM
TGI (786-0 renal): > 100 µM
TGI (MCF7 breast): > 100 µM

Cc1ccc(S(=O)(=O)/N=C(\NO)Nc2ccc(Cl)c(Cl)c2)cc1
TGI (NCI/ADR-RES ovarian): 46.3 µM
TGI (HT29 colon): 25.5 µM
TGI (SF-295 CNS): 31.8 µM
TGI (SF-268 CNS): 19.9 µM
TGI (HOP-92 NSCLC): 11.8 µM
TGI (A549 NSCLC): 26.9 µM
TGI (UACC-62 melanoma): 24.1 µM
TGI (MDA-MB-231 breast): 24.3 µM
TGI (RPMI-8226 leukemia): 30.9 µM
TGI (CCRF-CEM leukemia): 15.9 µM
TGI (SR leukemia): 21.5 µM
TGI (HS 578T breast): 27.3 µM
TGI (HL-60(TB) leukemia): 5.42 µM
TGI (NCI-H460 lung): 23.7 µM
TGI (LOX IMVI melanoma): 19 µM
TGI (CAKI-1 renal): 19.2 µM
TGI (OVCAR-3 ovarian): 16.9 µM
TGI (T-47D breast): 37 µM
TGI (BT-549 breast): 23.8 µM
TGI (SNB-19 CNS): 21.4 µM
TGI (SF-539 CNS): 24.5 µM
TGI (NCI-H23 lung): 37.2 µM
TGI (UO-31 renal): 18.3 µM
TGI (SK-OV-3 ovarian): 28.5 µM
TGI (HCT-15 colon): 28.4 µM
TGI (NCI-H522 lung): 19.1 µM
TGI (OVCAR-5 ovarian): 12.6 µM
TGI (ACHN renal): 24.9 µM
TGI (K-562 leukemia): 35 µM
TGI (RXF 393 renal): 24.2 µM
TGI (EKVX NSCLC): 19.9 µM
TGI (SN12C renal): 5.58 µM
TGI (SW-620 colon): 25.4 µM
TGI (NCI-H226 lung): 34.7 µM
TGI (SK-MEL-28 melanoma): 13.3 µM
TGI (PC-3 prostate): 18.4 µM
TGI (MDA-N): 14.5 µM
TGI (A498 renal): 23.7 µM
TGI (IGROV1 ovarian): 31.3 µM
TGI (M14 melanoma): 18.3 µM
TGI (HOP-62 NSCLC): 27.4 µM
TGI (TK-10 renal): 27.8 µM
TGI (DU-145 prostate): 24.6 µM
TGI (SK-MEL-2 melanoma): 22.4 µM
TGI (SK-MEL-5 melanoma): 4.82 µM
TGI (U251 CNS): 16.8 µM
TGI (HCC-2998 colon): 4.93 µM
TGI (OVCAR-4 ovarian): 21.8 µM
TGI (SNB-75 CNS): 17.6 µM
TGI (UACC-257 melanoma): 15.3 µM
TGI (MOLT-4 leukemia): 5.45 µM
TGI (HCT-116 colon): 17.7 µM
TGI (MALME-3M melanoma): 7.41 µM
TGI (MDA-MB-435): 13.6 µM
TGI (KM12 colon): 25.4 µM
TGI (OVCAR-8 ovarian): 24.4 µM
TGI (COLO 205 colon): 30.8 µM
TGI (786-0 renal): 16.2 µM
TGI (MCF7 breast): 41.3 µM

Cc1ccc(-c2cc(-c3cc(-c4ccc(C)cc4C)n[nH]3)[nH]n2)c(C)c1
TGI (NCI/ADR-RES ovarian): 43 µM
TGI (HT29 colon): 35.1 µM
TGI (SF-295 CNS): 26.5 µM
TGI (SF-268 CNS): 27.5 µM
TGI (HOP-92 NSCLC): 39 µM
TGI (A549 NSCLC): > 52.4 µM
TGI (UACC-62 melanoma): > 62 µM
TGI (MDA-MB-231 breast): 32.8 µM
TGI (RPMI-8226 leukemia): 10.5 µM
TGI (CCRF-CEM leukemia): 8.45 µM
TGI (SR leukemia): 26.5 µM
TGI (HS 578T breast): 44.6 µM
TGI (HL-60(TB) leukemia): 0.0792 µM
TGI (NCI-H460 lung): 21.4 µM
TGI (LOX IMVI melanoma): 38.4 µM
TGI (CAKI-1 renal): 36.2 µM
TGI (OVCAR-3 ovarian): 26.9 µM
TGI (T-47D breast): > 74.4 µM
TGI (BT-549 breast): 42.7 µM
TGI (SNB-19 CNS): 41.2 µM
TGI (SF-539 CNS): 34 µM
TGI (NCI-H23 lung): 41.9 µM
TGI (UO-31 renal): 45.7 µM
TGI (SK-OV-3 ovarian): 29.4 µM
TGI (HCT-15 colon): 44.8 µM
TGI (NCI-H522 lung): 30.3 µM
TGI (OVCAR-5 ovarian): 59 µM
TGI (ACHN renal): 24.4 µM
TGI (K-562 leukemia): 37.4 µM
TGI (RXF 393 renal): 32.7 µM
TGI (EKVX NSCLC): 46 µM
TGI (SN12C renal): 30.7 µM
TGI (SW-620 colon): 33.1 µM
TGI (NCI-H226 lung): 42.9 µM
TGI (SK-MEL-28 melanoma): 32.4 µM
TGI (PC-3 prostate): 29.2 µM
TGI (MDA-N): 34.1 µM
TGI (A498 renal): 34.1 µM
TGI (IGROV1 ovarian): 28.6 µM
TGI (M14 melanoma): 40.3 µM
TGI (HOP-62 NSCLC): 30.2 µM
TGI (TK-10 renal): 29.4 µM
TGI (DU-145 prostate): 33.1 µM
TGI (SK-MEL-2 melanoma): 36.2 µM
TGI (SK-MEL-5 melanoma): 56.2 µM
TGI (U251 CNS): 27.6 µM
TGI (HCC-2998 colon): 28.9 µM
TGI (OVCAR-4 ovarian): 29.1 µM
TGI (SNB-75 CNS): 34.8 µM
TGI (UACC-257 melanoma): 26.7 µM
TGI (MOLT-4 leukemia): 36.8 µM
TGI (HCT-116 colon): 33 µM
TGI (MALME-3M melanoma): 25 µM
TGI (MDA-MB-435): 31.1 µM
TGI (KM12 colon): 49 µM
TGI (OVCAR-8 ovarian): 43.1 µM
TGI (COLO 205 colon): > 62 µM
TGI (786-0 renal): 26.2 µM
TGI (MCF7 breast): 38.8 µM
